Laboratory results: patent US12344603B2 (Genentech, Inc., priority 2020, dated 2025)
Structures can show the parent of a compound that is named as a salt.

Target: IRE1α (Homo sapiens (Human), UniProt O75460, D688N)
Assay: IRE1α TR-FRET competition binding assay (IRE1α HTRF)
Conditions: TR-FRET competition binding to kinase domain of IRE1α
Method in brief: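 Kinase domain (0.25 nM) pre-bound to 2 nM Eu anti-His antibody for 1 h at 4° C in HEPES pH 7.5/MgCl2/Brij 35/DTT/gamma globulin buffer, then mixed with compounds and 2 nM Alexa 647 ATP-competitive probe. 1 h at room temperature; probe displacement read as TR-FRET (Ex 347 nm, Em 665/615 nm).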

IRE1α, sequence (O75460 547-977 D688N): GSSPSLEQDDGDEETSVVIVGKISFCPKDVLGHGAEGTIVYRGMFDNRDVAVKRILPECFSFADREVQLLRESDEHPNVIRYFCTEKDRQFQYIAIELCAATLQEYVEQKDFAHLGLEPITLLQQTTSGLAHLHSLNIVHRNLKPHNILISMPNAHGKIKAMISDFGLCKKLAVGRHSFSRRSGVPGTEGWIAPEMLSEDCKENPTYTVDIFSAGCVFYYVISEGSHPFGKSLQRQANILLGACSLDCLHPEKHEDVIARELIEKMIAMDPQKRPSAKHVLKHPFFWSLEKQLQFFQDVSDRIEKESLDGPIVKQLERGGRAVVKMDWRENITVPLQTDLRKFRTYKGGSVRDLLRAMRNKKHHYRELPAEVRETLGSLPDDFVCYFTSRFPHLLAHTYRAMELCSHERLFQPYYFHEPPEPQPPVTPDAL

Row | SMILES | IC50 [nM]
1 | CC(C)n1c(=O)c(-c2cc(F)c(NS(=O)(=O)CCC(F)(F)F)c(F)c2F)cc2cnc(NC3CCC(N(C)C)C(F)C3)nc21 (centres unmarked) [Compound 60, N-(4-(2-((4-(dimethylamino)-3-fluorocyclohexyl)amino)-8-isopropyl-7-oxo-7,8-dihydropyrido[2,3-d]pyrimidin-6-yl)-2,3,6-trifluorophenyl)-3,3,3-trifluoropropane-1-sulfonamide] | 0.2
2 | CC(C)n1c(=O)c(-c2cc(F)c(NS(=O)(=O)c3ccccc3Cl)c(F)c2F)cc2cnc(N[C@@H]3CNC[C@@H](F)C3)nc21 [Compound 61, 2-Chloro-N-(2,3,6-trifluoro-4-(2-(((3S,5S)-5-fluoropiperidin-3-yl)amino)-8-isopropyl-7-oxo-7,8-dihydropyrido[2,3-d]pyrimidin-6-yl)phenyl)benzenesulfonamide hydrochloride] | 0.31
3 | CC(C)n1c(=O)c(-c2cc(F)c(NC(=O)CC3CCC3)c(F)c2F)cc2cnc(N[C@H]3CC[C@H](N(C)C)CC3)nc21 [Compound 62, 2-Cyclobutyl-N-(4-(2-(((1r,4r)-4-(dimethylamino)cyclohexyl)amino)-8-isopropyl-7-oxo-7,8-dihydropyrido[2,3-d]pyrimidin-6-yl)-2,3,6-trifluorophenyl)acetamide] | 2.2
4 | CC(C)n1c(=O)c(-c2cc(F)c(NC(=O)[C@H]3C[C@H]3F)c(F)c2F)cc2cnc(N[C@H]3CC[C@H](N(C)C)CC3)nc21 [Compound 63, (1R,2R)—N-(4-(2-(((1r,4r)-4-(Dimethylamino)cyclohexyl)amino)-8-isopropyl-7-oxo-7,8-dihydropyrido[2,3-d]pyrimidin-6-yl)-2,3,6-trifluorophenyl)-2-fluorocyclopropane-1-carboxamide hydrochloride] | 4.1
5 | CC(C)n1c(=O)c(-c2ccc(NS(=O)(=O)Cc3ccccc3)c(F)c2)nc2cnc(N[C@@H]3CNC[C@@](C)(F)C3)nc21 [Compound 64, N-(2-Fluoro-4-(2-(((3S,5S)-5-fluoro-5-methylpiperidin-3-yl)amino)-8-isopropyl-7-oxo-7,8-dihydropteridin-6-yl)phenyl)-1-phenylmethanesulfonamide] | 0.21
6 | CC(C)n1c(=O)c(-c2ccc(NS(=O)(=O)Cc3ccccc3)c(F)c2)nc2cnc(N[C@@H]3CNC[C@H](CF)C3)nc21 [Compound 65, N-(2-Fluoro-4-(2-(((3S,5R)-5-(fluoromethyl)piperidin-3-yl)amino)-8-isopropyl-7-oxo-7,8-dihydropteridin-6-yl)phenyl)-1-phenylmethanesulfonamide] | 0.24
7 | CC(C)n1c(=O)c(-c2ccc(NS(=O)(=O)CCC(C)(F)F)c(F)c2)nc2cnc(N[C@H]3CC[C@H](N(C)C)CC3)nc21 [Compound 66, N-(4-(2-(((1r,4r)-4-(Dimethylamino)cyclohexyl)amino)-8-isopropyl-7-oxo-7,8-dihydropteridin-6-yl)-2-fluorophenyl)-3,3-difluorobutane-1-sulfonamide] | 0.29
8 | CC(C)n1c(=O)c(-c2ccc(NS(=O)(=O)CCC(F)(F)F)c(F)c2)nc2cnc(N[C@H]3CC[C@H](N(C)C)CC3)nc21 [Compound 67, N-(4-(2-(((1r,4r)-4-(Dimethylamino)cyclohexyl)amino)-8-isopropyl-7-oxo-7,8-dihydropteridin-6-yl)-2-fluorophenyl)-3,3,3-trifluoropropane-1-sulfonamide] | 0.18
9 | CC(C)n1c(=O)c(-c2ccc(NS(=O)(=O)Cc3ccccc3)c(F)c2)nc2cnc(N[C@H]3CC[C@H](N(C)C)CC3)nc21 [Compound 68, N-(4-(2-(((1r,4r)-4-(Dimethylamino)cyclohexyl)amino)-8-isopropyl-7-oxo-7,8-dihydropteridin-6-yl)-2-fluorophenyl)-1-phenylmethanesulfonamide] | 0.13
10 | CCn1c(=O)c(-c2cc(NS(=O)(=O)Cc3ccccc3)nn2C)cc2cnc(N[C@@H]3CNC[C@@H](F)C3)nc21 [Compound 69, N-(5-(8-ethyl-2-(((3S,5S)-5-fluoropiperidin-3-yl)amino)-7-oxo-7,8-dihydropyrido[2,3-d]pyrimidin-6-yl)-1-methyl-1H-pyrazol-3-yl)-1-phenylmethanesulfonamide] | 98
11 | CC(C)n1c(=O)c(-c2cc(F)c(NS(=O)(=O)CCC(F)(F)F)c(F)c2)cc2cnc(N[C@H]3CC[C@H](N(C)C)CC3)nc21 [Compound 70, N-(4-(2-(((1,4-trans)-4-(Dimethylamino)cyclohexyl)amino)-8-isopropyl-7-oxo-7,8-dihydropyrido[2,3-d]pyrimidin-6-yl)-2,6-difluorophenyl)-3,3,3-trifluoropropane-1-sulfonamide] | 0.26

More lines, now with the values ahead:

Row | IC50 [nM] | SMILES
12 | 0.25 | CC(C)n1c(=O)c(-c2cc(F)c(NS(=O)(=O)CCC(F)(F)F)cc2F)cc2cnc(N[C@H]3CC[C@H](N(C)C)CC3)nc21 [Compound 71, N-(4-(2-(((1,4-trans)-4-(Dimethylamino)cyclohexyl)amino)-8-isopropyl-7-oxo-7,8-dihydropyrido[2,3-d]pyrimidin-6-yl)-2,5-difluorophenyl)-3,3,3-trifluoropropane-1-sulfonamide formate]
13 | 0.5 | Cc1cc(-c2nc3cnc(N[C@@H]4CNC[C@@H](F)C4)nc3n(C(C)C)c2=O)cc(F)c1NS(=O)(=O)Cc1ccccc1 [Compound 72, N-[2-Fluoro-4-[2-[[(3S,5S)-5-fluoro-3-piperidyl]amino]-8-isopropyl-7-oxo-pteridin-6-yl]-6-methyl-phenyl]-1-phenyl-methanesulfonamide]
14 | 0.5 | CC(C)n1c(=O)c(-c2ccc(NS(=O)(=O)CCC(F)(F)F)c(F)c2)nc2cnc(N[C@@H]3CNC[C@@H](F)C3)nc21 [Compound 73, 3,3,3-Trifluoro-N-[2-fluoro-4-[2-[[(3S,5S)-5-fluoro-3-piperidyl]amino]-8-isopropyl-7-oxo-pteridin-6-yl]phenyl]propane-1-sulfonamide]
15 | 0.6 | CC(C)n1c(=O)c(-c2ccc(NS(=O)(=O)c3ccccc3)c(F)c2)nc2cnc(N[C@@H]3CNC[C@@H](F)C3)nc21 [Compound 74, N-[2-Fluoro-4-[2-[[(3S,5S)-5-fluoro-3-piperidyl]amino]-8-isopropyl-7-oxo-pteridin-6-yl]phenyl]benzenesulfonamide]
16 | 0.3 | CC(C)n1c(=O)c(-c2ccc(NS(=O)(=O)c3ccccc3Cl)c(F)c2)nc2cnc(N[C@@H]3CNC[C@@H](F)C3)nc21 [Compound 75, 2-Chloro-N-[2-fluoro-4-[2-[[(3S,5S)-5-fluoro-3-piperidyl]amino]-8-isopropyl-7-oxo-pteridin-6-yl]phenyl]benzenesulfonamide]
17 | 0.9 | CC(C)n1c(=O)c(-c2ccc(NS(=O)(=O)CCC(F)(F)F)c(F)c2)nc2cnc(N[C@@H]3CNC[C@H](CF)C3)nc21 [Compound 76, 3,3,3-Trifluoro-N-[2-fluoro-4-[2-[[(3S,5R)-5-(fluoromethyl)-3-piperidyl]amino]-8-isopropyl-7-oxo-pteridin-6-yl]phenyl]propane-1-sulfonamide]
18 | 0.8 | CC(C)n1c(=O)c(-c2ccc(NS(=O)(=O)CCC(C)(F)F)c(F)c2)nc2cnc(N[C@@H]3CNC[C@H](CF)C3)nc21 [Compound 77, 3,3-Difluoro-N-[2-fluoro-4-[2-[[(3S,5R)-5-(fluoromethyl)-3-piperidyl]amino]-8-isopropyl-7-oxo-pteridin-6-yl]phenyl]butane-1-sulfonamide]
19 | 1 | CC(C)n1c(=O)c(-c2ccc(NS(=O)(=O)CCC(F)F)c(F)c2)nc2cnc(N[C@@H]3CNC[C@H](CF)C3)nc21 [Compound 78, 3,3-Difluoro-N-[2-fluoro-4-[2-[[(3S,5R)-5-(fluoromethyl)-3-piperidyl]amino]-8-isopropyl-7-oxo-pteridin-6-yl]phenyl]propane-1-sulfonamide]
20 | 1.5 | CCCS(=O)(=O)Nc1ccc(-c2nc3cnc(N[C@@H]4CNC[C@H](CF)C4)nc3n(C(C)C)c2=O)cc1F [Compound 79, N-[2-Fluoro-4-[2-[[(3S,5R)-5-(fluoromethyl)-3-piperidyl]amino]-8-isopropyl-7-oxo-pteridin-6-yl]phenyl]propane-1-sulfonamide]
21 | 0.2 | CC(C)n1c(=O)c(-c2ccc(NS(=O)(=O)Cc3ccccc3C#N)c(F)c2)nc2cnc(N[C@@H]3CNC[C@@H](F)C3)nc21 [Compound 80, 1-(2-Cyanophenyl)-N-[2-fluoro-4-[2-[[(3S,5S)-5-fluoro-3-piperidyl]amino]-8-isopropyl-7-oxo-pteridin-6-yl]phenyl]methanesulfonamide]
22 | 0.1 | CC(C)n1c(=O)c(-c2ccc(NS(=O)(=O)Cc3ccc(C#N)cc3)c(F)c2)nc2cnc(N[C@@H]3CNC[C@@H](F)C3)nc21 [Compound 81, 1-(4-Cyanophenyl)-N-[2-fluoro-4-[2-[[(3S,5S)-5-fluoro-3-piperidyl]amino]-8-isopropyl-7-oxo-pteridin-6-yl]phenyl]methanesulfonamide]
23 | 0.8 | CCCS(=O)(=O)Nc1ccc(-c2nc3cnc(N[C@@H]4CNC[C@@H](F)C4)nc3n(C(C)C)c2=O)cc1F [Compound 82, N-[2-Fluoro-4-[2-[[(3S,5S)-5-fluoro-3-piperidyl]amino]-8-isopropyl-7-oxo-pteridin-6-yl]phenyl]propane-1-sulfonamide]
24 | 0.4 | CCC(F)(F)CS(=O)(=O)Nc1ccc(-c2nc3cnc(N[C@@H]4CNC[C@@H](F)C4)nc3n(C(C)C)c2=O)cc1F [Compound 83, 2,2-Difluoro-N-[2-fluoro-4-[2-[[(3S,5S)-5-fluoro-3-piperidyl]amino]-8-isopropyl-7-oxo-pteridin-6-yl]phenyl]butane-1-sulfonamide]
25 | 0.4 | CC(C)n1c(=O)c(-c2ccc(NS(=O)(=O)CCC(C)(F)F)c(F)c2)nc2cnc(N[C@@H]3CNC[C@@H](F)C3)nc21 [Compound 84, 3,3-Difluoro-N-[2-fluoro-4-[2-[[(3S,5S)-5-fluoro-3-piperidyl]amino]-8-isopropyl-7-oxo-pteridin-6-yl]phenyl]butane-1-sulfonamide]
26 | 16 | CC(C)n1c(=O)c(-c2cc(NS(=O)(=O)CCC(F)(F)F)nn2C)cc2cnc(N[C@@H]3CNC[C@@H](F)C3)nc21 [Compound 85]
